Here are results for 14 molecules from ChEMBL document CHEMBL1154260, “Synthesis and SAR of alkanediamide-linked bisbenzamidines with anti-trypanosomal and anti-pneumocystis activity” (Bioorg Med Chem Lett, 2009).

For series [1], the system named is Trypanosoma brucei brucei. Kind of series: Antitrypanosomal activity against pentamidine-sensitive Trypanosoma brucei brucei LAB 110 EATRO. The series is classed as functional, organism-based.
Series [2] concerns Trypanosoma brucei rhodesiense. Kind of series: Antitrypanosomal activity against Multidrug-resistant Trypanosoma brucei rhodesiense KETRI 243. The class given is functional, organism-based.
The next series concerns Pneumocystis carinii. In words: Antipneumocystis activity against Pneumocystis carinii. The class given is functional, organism-based.
For another series, the system named is A549. Kind of series: Cytotoxicity against human A549 cells. The series is classed as cell-based.
Series [3] can be described thus: Selectivity index, ratio of IC50 for human A549 cells to IC50 for Trypanosoma brucei. The series is classed as toxicity, cell-based. Particulars: read-out: Ratio IC50.
The subject of series [4] is Nucleic Acid. In words: Binding affinity to poly(dA-dT)DNA assessed as change in melting temperature. The series is classed as nucleic-acid assay.
Series [5] can be described thus: Selectivity index, ratio of IC50 for human A549 cells to IC50 for Pneumocystis carinii.
The test system of series [6] is Nucleic Acid. Kind of series: Binding affinity to DNA assessed as change in melting temperature. The class given is nucleic-acid assay.

The structures appear in SMILES notation. Bounds are passed on as bounds.

For `N=C(N)c1ccc(NC(=O)CCCCCCCCC(=O)Nc2ccc(C(=N)N)cc2)cc1`, the 50% inhibitory concentration (IC50) in series [1] came out at 2 nM; in series [2], 4 nM; with Pneumocystis carinii, 4280 nM; in the series on A549 it was 249 µM. Also, in series [3], the selectivity ratio worked out at 18900. The ΔTm with Nucleic Acid [4] is 7.5 °C.

On to `N=C(N)c1ccc(NC(=O)CCCCC(=O)Nc2cccc(C(=N)N)c2)cc1`, for which the IC50 in series [1] was 12 nM; in series [2], 7 nM; in the series with Pneumocystis carinii it was 2270 nM; with A549, more than 227 µM. Also, the selectivity ratio in series [3] worked out at 18900. For the same molecule, the thermal shift (ΔTm) with Nucleic Acid [4] was determined as 7.5 °C.

Consider `N=C(N)c1ccc(OCCCCCOc2ccc(C(=N)N)cc2)cc1` [PENTAMIDINE], for which the midpoint of inhibition in series [2], the IC50, lay at […]. Besides, the ΔTm in the series with Nucleic Acid [4] amounted to 21.6 °C.

On to `N=C(N)c1ccc(NC(=O)CCCCC(=O)Nc2ccc(C(=N)N)cc2)cc1`, for which the IC50 in series [1] was determined as 3 nM; in series [2], 2 nM; in the series with A549, 1190 µM. Also, the selectivity ratio in series [3] is 18900. The “Ratio IC50” value in series [5] stood at 596500. The ΔTm was found to be 7.5 °C in the series on Nucleic Acid [4] and 11.4 °C with Nucleic Acid [6].

As for `N=C(N)c1ccc(NC(=O)CCCCCCC(=O)Nc2ccc(C(=N)N)cc2)cc1`, the IC50 in series [1] is 3 nM; in series [2], 1 nM; with Pneumocystis carinii, 1950 nM; in the series with A549, 176 µM. Also, the selectivity ratio in series [3] was determined as 18900. In addition, the ΔTm with Nucleic Acid [4] and in the series with Nucleic Acid [6] was 13.2 °C in each case.

Turning to `N=C(N)c1ccc(NC(=O)CCCCCCCCCCC(=O)Nc2ccc(C(=N)N)cc2)cc1`, the IC50 in series [1] was found to be 8 nM; in series [2], 7 nM; in the series with Pneumocystis carinii, 3070 nM; in the series on A549 it was 18 µM. The thermal shift (ΔTm) in the series on Nucleic Acid [4] amounted to 7.5 °C.

On to `N=C(N)c1cccc(NC(=O)CCCCC(=O)Nc2cccc(C(=N)N)c2)c1`, for which the half-inhibitory concentration (IC50) in series [1] was 41 nM; in series [2] it was 21 nM; in the series with Pneumocystis carinii it was 33700 nM. Besides, the ΔTm in the series on Nucleic Acid [4] and in the series with Nucleic Acid [6] was 13.8 °C each time.

Regarding `N=C(N)c1ccc(NC(=O)CCCCCC(=O)Nc2ccc(C(=N)N)cc2)cc1`, the 50% inhibitory concentration (IC50) is 2 nM in series [1], 2 nM in series [2], 2370 nM in the series on Pneumocystis carinii and more than 237 µM in the series on A549. Further, the selectivity ratio in series [3] was found to be 18900. In addition, the shift in melting temperature (ΔTm) with Nucleic Acid [4] amounted to 7.5 °C.

As for `N=C(N)c1ccc(NC(=O)CCCC(=O)Nc2ccc(C(=N)N)cc2)cc1`, the 50% inhibitory concentration (IC50) stood at 9 nM in series [1], 96 nM in series [2], 3 nM with Pneumocystis carinii and 2280 µM with A549. Besides, the ΔTm was 7.5 °C in the series on Nucleic Acid [4] and 11.4 °C with Nucleic Acid [6].

For `N=C(N)c1ccc(NC(=O)CCCCCCCC(=O)Nc2ccc(C(=N)N)cc2)cc1`, the IC50 worked out at 400 nM in series [1], 240 nM in series [2], 2440 nM with Pneumocystis carinii and 2.87 µM with A549. Further, the ΔTm in the series on Nucleic Acid [4] was 7.5 °C.

For the molecule `N=C(N)c1ccc(NC(=O)CCC(=O)Nc2ccc(C(=N)N)cc2)cc1`, the 50% inhibitory concentration (IC50) in series [1] was 9000 nM; in series [2], 2190 nM; in the series on Pneumocystis carinii, 442 nM; in the series on A549, more than 44.2 µM. Besides, the values for the ΔTm in the series on Nucleic Acid [4] and in the series with Nucleic Acid [6] were 7.5 °C and 11.4 °C, respectively.

As for `NC(=O)c1ccc(NC(=O)CCCCC(=O)Nc2ccc(C(N)=O)cc2)cc1`, the 50% inhibitory concentration (IC50) in series [1] was 2800 nM; in series [2], 1100 nM; in the series on Pneumocystis carinii, more than 100000 nM. Also, the ΔTm in the series on Nucleic Acid [4] was 7.5 °C.

For the molecule `NC(=O)c1cccc(NC(=O)CCCCC(=O)Nc2cccc(C(N)=O)c2)c1`, the values for the IC50 (in series [2]; in the series on Pneumocystis carinii; in the series with A549) were 1970 nM, more than 100000 nM and more than 261 µM, respectively. Further, the ΔTm in the series on Nucleic Acid [4] was 7.5 °C.

Regarding `N#Cc1ccc(NC(=O)CCCC(=O)Nc2ccc(C#N)cc2)cc1`, the figures for the IC50 in series [1] and in series [2] were 6500 nM and 7900 nM, respectively. The ΔTm in the series on Nucleic Acid [4] was 7.5 °C.

One may read the IC50 as the point on the concentration scale where inhibition reaches its midpoint. The term ΔTm denotes the shift of the melting midpoint relative to a reference.
